Like-named read-outs stand apart in the source and are kept apart here.
Legend:
[1] = system: mu opiate receptor (MOR); test: MOR agonist activity using [35S]GTPγS binding assay in striatal membranes; format: biochemical; conditions: for MOR agonist activity, FLNA-Binding Compound as Agonist 0.1 μM (preliminary study) / MOR agonist activity, FLNA-Binding Compound as Agonist 1 μM + βNFA (preliminary study) / MOR agonist activity, FLNA-Binding Compound as Agonist 1 μM (preliminary study): average of two runs; for MOR agonist activity (conclusion in words): preliminary study; for MOR agonist activity ([35S]GTPγS binding), FLNA-Binding Compound as Agonist 1 μM + BFNA: 1 μM compound + 1 μM β-funaltrexamine
Method: To assess the mu opiate receptor (MOR) agonist activity of positive compounds from the FLNA screening, compounds were tested in a [^35S]GTPγS binding assay using striatal membranes. […] This assay measures a functional consequence of receptor occupancy at one of the earliest receptor-mediated events. The assay permits traditional pharmacological parameters of potency, efficacy and antagonist affinity, with the advantage that agonist measures are not subjected to amplification or other modulation that may occur when analyzing parameters further downstream of the receptor.
Thus, striatal tissue was homogenized in 10 volumes of ice cold 25 mM HEPES buffer, pH 7.4, which contained 1 mM EGTA, 100 mM sucrose, 50 μg/ml leupeptin, 0.04 mM PMSF, 2 μg/ml soybean trypsin inhibitor and 0.2% 2-mercaptoethanol. The homogenates were centrifuged at 800×g for 5 minutes and the supernatants were centrifuged at 49,000×g for 20 minutes. The resulting pellets were suspended in 10 volume of reaction buffer, which contained 25 mM HEPES, pH 7.5, 100 mM NaCl, 50 μg/ml leupeptin, 2 μg/ml soybean trypsin inhibitor, 0.04 mM PMSF and 0.02% […].
The resultant striatal membrane preparation (200 μg) was admixed and maintained (incubated) at 30° C. for 5 minutes in reaction buffer as above that additionally contained 1 mM MgCl2 and 0.5 nM [^35S]GTPγS (0.1 μCi/assay, PerkinElmer Life and Analytical Sciences) in a total volume of 250 μl and continued for 5 minutes in the absence or presence of 0.1-10 μM of an assayed compound of interest. The reaction was terminated by dilution with 750 μl of ice-cold reaction buffer that contained 20 mM MgCl2 and 1 mM EGTA and immediate centrifugation at 16,000×g for 5 minutes.
The resulting pellet was solubilized by sonicating for 10 seconds in 0.5 ml of immunoprecipitation buffer containing 0.5% digitonin, 0.2% sodium cholate and 0.5% NP-40. Normal rabbit serum (1 μl) was added to 1 ml of lysate and incubated at 25° C. for 30 minutes. Nonspecific immune complexes were removed by incubation with 25 μl of protein A/G-conjugated agarose beads at 25° C. for 30 minutes followed by centrifugation at 5,000×g at 4° C. for 5 minutes. The supernatant was divided and separately incubated at 25° C. for 30 minutes with antibodies raised against Gαo proteins (1:1,000 dilutions).
The immunocomplexes so formed were collected by incubation at 25° C. for 30 minutes with 40 μl of agarose-conjugated protein A/G beads and centrifugation at 5,000×g at 4° C. for 5 minutes. The pellet was washed and suspended in buffer containing 50 mM Tris-HCl, pH 8.0, and 1% NP-40. The radioactivity in the suspension was determined by liquid scintillation spectrometry.

[2] = target: FLNA pentapeptide of SEQ ID NO: 1 (Bn-VAKGL) (Homo sapiens, UniProt P21333); test: FITC-NLX-based FLNA screening assay (inhibition of FITC-naloxone binding to Bn-VAKGL on streptavidin plates); conditions: for inhibition at 0.01 µM / inhibition at 0.1 µM / inhibition at 1 µM: 10 nM FITC-NLX; for Binding to FLNA (conclusion in words): preliminary study
[3] = read-out: Percent Binding Inhibition, FLNA-binding compound 0.01 μM
[4] = read-out: Percent Binding Inhibition, FLNA-binding compound 0.1 μM
[5] = read-out: Percent Binding Inhibition, FLNA-binding compound 1 μM
[6] = FLNA-binding compound 0.01 μM, read-out: Percent Binding Inhibition
[7] = FLNA-binding compound 0.1 μM, read-out: Percent Binding Inhibition
[8] = FLNA-binding compound 1 μM, read-out: Percent Binding Inhibition
[9] = 0.1 μM compound relative to DAMGO
[10] = 1 μM compound + BFNA relative to DAMGO + BFNA
[11] = 1 μM compound relative to DAMGO

O=C1CN(C2CCc3ccccc3C2)C2(CCN(S(=O)(=O)c3ccccc3)CC2)N1 (stereo not shown) [C0136M(P5)]
% DAMGO (0.1 μM) ([1]; Series C-2, 0.1 μM compound, relative to DAMGO): 93.4%
MOR agonist activity, percent [35S]GTPγS binding at the stated compound concentration ([1]; Series C-2, 0.1 μM compound, [35S]GTPγS binding to Gαo, striatal membranes): 176.8%
MOR agonist activity, percent [35S]GTPγS binding at the stated compound concentration ([1]; Series C-2, 1 μM compound + 1 μM β-FNA): 74.5%
% DAMGO + BFNA ([1]; Series C-2, 1 μM compound + β-FNA, relative to DAMGO + BFNA): 153.6%
% DAMGO (1 μM) ([1]; Series C-2, 1 μM compound, relative to DAMGO): 95.6%
MOR agonist activity, percent [35S]GTPγS binding at the stated compound concentration ([1]; Series C-2, 1 μM compound, [35S]GTPγS binding to Gαo, striatal membranes): 237.3%
inhibition at 0.01 µM [2, 3]: 46.7%
inhibition at 0.1 µM [2, 4]: 55.2%
inhibition at 1 µM [2, 5]: 58.2%

O=S(=O)(c1ccc(OC(F)(F)F)cc1)N1CCOC12CCN(CC1CC1)CC2 [Compound 4]
MOR agonist activity, FLNA-Binding Compound as Agonist 0.1 μM (preliminary study) [1]: 133.9%
MOR agonist activity, FLNA-Binding Compound as Agonist 1 μM + βNFA (preliminary study) [1]: 49.5%
MOR agonist activity, FLNA-Binding Compound as Agonist 1 μM (preliminary study) [1]: 165.2%
MOR agonist activity (conclusion in words) [1]: not as potent a MOR agonist
Binding to FLNA (conclusion in words) [2]: bound well to FLNA

Cc1ccc(S(=O)(=O)N2CCOC23CCN(CC2CCC2)CC3)cc1 [Compound 9]
MOR agonist activity, FLNA-Binding Compound as Agonist 0.1 μM (preliminary study) [1]: 156.6%
MOR agonist activity, FLNA-Binding Compound as Agonist 1 μM + βNFA (preliminary study) [1]: 56.6%
MOR agonist activity, FLNA-Binding Compound as Agonist 1 μM (preliminary study) [1]: 197.2%
MOR agonist activity (conclusion in words) [1]: MOR agonists
Binding to FLNA (conclusion in words) [2]: bind well to FLNA

C=CCN1CCC2(CC1)OCCN2S(=O)(=O)c1ccc(C)cc1 [Compound 10]
MOR agonist activity, FLNA-Binding Compound as Agonist 0.1 μM (preliminary study) [1]: 163.1%
MOR agonist activity, FLNA-Binding Compound as Agonist 1 μM + βNFA (preliminary study) [1]: 60.4%
MOR agonist activity, FLNA-Binding Compound as Agonist 1 μM (preliminary study) [1]: 191.8%
MOR agonist activity (conclusion in words) [1]: MOR agonists
Binding to FLNA (conclusion in words) [2]: bind well to FLNA

COc1ccccc1CC(=O)CC1c2c(cc3c(c2OC)OCO3)CC[N+]1(C)C (stereo not shown) [Compound 5009]
% DAMGO (0.1 μM) ([1]; Series B, 0.1 μM compound, relative to DAMGO): 66.9%
MOR agonist activity, percent [35S]GTPγS binding at the stated compound concentration ([1]; Series B, 0.1 μM compound, [35S]GTPγS binding to Gαo, striatal membranes): 128.5%
MOR agonist activity, percent [35S]GTPγS binding at the stated compound concentration ([1]; Series B, 1 μM compound + 1 μM β-FNA): 87.5%
% DAMGO + BFNA ([1]; Series B, 1 μM compound + β-FNA, relative to DAMGO + BFNA): 181.5%
% DAMGO (1 μM) ([1]; Series B, 1 μM compound, relative to DAMGO): 83.2%
MOR agonist activity, percent [35S]GTPγS binding at the stated compound concentration ([1]; Series B, 1 μM compound, [35S]GTPγS binding to Gαo, striatal membranes): 270.4%
inhibition at 0.01 µM [2, 3]: 42.5%
inhibition at 0.1 µM [2, 4]: 47.3%
inhibition at 1 µM [2, 5]: 54.3%

COc1ccc(S(=O)(=O)N2CCC3(CC2)OCCN3S(=O)(=O)c2ccc(OC)cc2)cc1 [Compound 7866]
% DAMGO (0.1 μM) ([1]; Series C-1, 0.1 μM compound, relative to DAMGO): 79.3%
Concentration of FLNA-Binding Compound as Agonist 0.1 μM ([1]; Series C-1, 0.1 μM compound, [35S]GTPγS binding to Gαo, striatal membranes): 152.3%
Concentration of FLNA-Binding Compound as Agonist 1 μM + BFNA ([1]; Series C-1, 1 μM compound + 1 μM β-FNA): 62.4%
% DAMGO + BFNA ([1]; Series C-1, 1 μM compound + β-FNA, relative to DAMGO + BFNA): 129.5%
% DAMGO (1 μM) ([1]; Series C-1, 1 μM compound, relative to DAMGO): 94.8%
Concentration of FLNA-Binding Compound as Agonist 1 μM ([1]; Series C-1, 1 μM compound, [35S]GTPγS binding to Gαo, striatal membranes): 308.2%
inhibition at 0.01 µM [2, 6]: 38.5%
inhibition at 0.1 µM [2, 7]: 47.9%
inhibition at 1 µM [2, 8]: 53.4%

CC1CCC(C(C)C)C(OCC(O)CN2CCCC2)C1 (stereo not shown) [Compound A0001]
MOR agonist activity ([35S]GTPγS binding), FLNA-Binding Compound as Agonist 0.1 μM ([1]; 0.1 μM compound): 94.3%
% DAMGO (0.1 μM) [1, 9]: 63.1%
MOR agonist activity ([35S]GTPγS binding), FLNA-Binding Compound as Agonist 1 μM ([1]; 1 μM compound): 181.7%
MOR agonist activity ([35S]GTPγS binding), FLNA-Binding Compound as Agonist 1 μM + BFNA [1]: 22.2%
% DAMGO + BFNA [1, 10]: 83.8%
% DAMGO (1 μM) [1, 11]: 78.9%
inhibition at 0.01 µM [2, 3]: 39.7%
inhibition at 0.1 µM [2, 4]: 45.6%
inhibition at 1 µM [2, 5]: 52.4%

CC1CCC(C(C)C)C(OCC(O)CN2CCSC2)C1 (stereo not shown) [Compound A0002]
MOR agonist activity ([35S]GTPγS binding), FLNA-Binding Compound as Agonist 0.1 μM ([1]; 0.1 μM compound): 155.6%
% DAMGO (0.1 μM) [1, 9]: 104.1%
MOR agonist activity ([35S]GTPγS binding), FLNA-Binding Compound as Agonist 1 μM ([1]; 1 μM compound): 199.4%
MOR agonist activity ([35S]GTPγS binding), FLNA-Binding Compound as Agonist 1 μM + BFNA [1]: 6.5%
% DAMGO + BFNA [1, 10]: 24.5%
% DAMGO (1 μM) [1, 11]: 86.6%
inhibition at 0.01 µM [2, 6]: 38.7%
inhibition at 0.1 µM [2, 7]: 43.7%
inhibition at 1 µM [2, 8]: 49.9%

NS(=O)(=O)c1ccc(S(=O)(=O)N2CCC3(CC2)NCCO3)cc1 [Compound C0034-3]
inhibition at 0.01 µM [2, 6]: 29.6%
inhibition at 0.1 µM [2, 7]: 38.3%
inhibition at 1 µM [2, 8]: 44.8%

COc1ccc(CN2CCC3(CC2)OCCN3S(=O)(=O)c2ccc(OC)cc2)cc1 [Compound C0038]
inhibition at 0.01 µM [2, 6]: 31.7%
inhibition at 0.1 µM [2, 7]: 36%
inhibition at 1 µM [2, 8]: 43.5%

CC(=O)c1ccc(S(=O)(=O)N2CCC3(CC2)NCCO3)cc1 [Compound C0055]
inhibition at 0.01 µM [2, 6]: 29%
inhibition at 0.1 µM [2, 7]: 34.9%
inhibition at 1 µM [2, 8]: 39.5%

O=C1CNC2(CCN(CC3CC3)CC2)N1 [Compound C0123M]
inhibition at 0.01 µM [2, 6]: 51.9%
inhibition at 0.1 µM [2, 7]: 60.5%
inhibition at 1 µM [2, 8]: 62.9%

O=C1CNC2(CCN(S(=O)(=O)c3ccc(O)cc3)CC2)N1Cc1ccccc1 [Compound C0148M]
inhibition at 0.01 µM [2, 6]: 46.2%
inhibition at 0.1 µM [2, 7]: 52%
inhibition at 1 µM [2, 8]: 57%

C=CCN1CC[C@]23c4c5ccc(O)c4O[C@H]2C(=O)CC[C@@]3(O)[C@H]1C5 [NLX, naloxone, reference compound]
Inhibition of 10 nM FITC-conjugated NLX binding to biotinylated FLNA pentapeptide (FIG. 28) ([2]; 1 μM): inhibit well

O=C1CC[C@@]2(O)[C@H]3Cc4ccc(O)c5c4[C@@]2(CCN3CC2CC2)[C@H]1O5 [NTX, naltrexone, reference compound]
Inhibition of 10 nM FITC-conjugated NLX binding to biotinylated FLNA pentapeptide (FIG. 28) ([2]; 1 μM): inhibit well

C=CCN1CC[C@]23c4c5ccc(O)c4O[C@H]2C(=O)CC[C@@]3(O)[C@H]1C5 [Naloxone Control, naloxone, reference compound]
inhibition at 0.01 µM [2, 3]: 39.9%
inhibition at 0.1 µM [2, 4]: 46.3%
inhibition at 1 µM [2, 5]: 50.9%

CN1CC[C@]23c4c5ccc(O)c4O[C@H]2[C@@H](O)C=C[C@H]3[C@H]1C5 [morphine, reference compound]
Inhibition of 10 nM FITC-conjugated NLX binding to biotinylated FLNA pentapeptide (FIG. 28) ([2]; 10 μM): minimal binding inhibition

COc1ccc2c3c1O[C@H]1C(=O)CC[C@@]4(O)[C@@H](C2)N(C)CC[C@]314 [oxycodone, reference compound]
Inhibition of 10 nM FITC-conjugated NLX binding to biotinylated FLNA pentapeptide (FIG. 28) ([2]; 10 μM): minimal binding inhibition

Reference: patent US10363239B2, “Method for inhibiting growth of cancer cells” (Pain Therapeutics, Inc., priority 2013, dated 2019)
